{"source": "ChEMBL document CHEMBL1126282", "about": "“Synthesis and conformational properties of the lanthionine-bridged opioid peptide [D-AlaL2,AlaL5]enkephalin as determined by NMR and computer simulations” (J Med Chem, 1992)", "key": {"[1]": {"tested_on": "Rattus norvegicus", "assay": "Effective dose was measured using in vivo rat hot plate test after intrathecal injection", "assay_type": "functional", "details": "central"}, "[2]": {"tested_on": "Cavia porcellus", "assay": "Concentration inhibiting electrically induced contraction of guinea pig ileum(GPI) at an ED50 of 0.15(ug/kg).", "assay_type": "functional, organism-based"}, "[3]": {"organism": "Cavia porcellus", "assay": "Potency to inhibit electrically induced contraction of guinea pig ileum(GPI) relative to [Leu5]-enkephalin.", "assay_type": "functional"}, "[4]": {"tested_on": "Mus musculus", "assay": "Concentration inhibiting electrically induced contraction of mouse vas deferens(MVD) at an ED50 of 0.15(ug/kg).", "assay_type": "functional, organism-based"}, "[5]": {"organism": "Mus musculus", "assay": "Potency to inhibit electrically induced contraction of mouse vas deferens(MVD) relative to [Leu5]-enkephalin.", "assay_type": "functional"}, "[6]": {"assay": "Selectivity Ratio of IC50 of MVD to IC50 of GPI", "assay_type": "functional"}, "[7]": {"organism": "Cavia porcellus", "assay": "Concentration inhibiting electrically induced contraction of guinea pig ileum(GPI).", "assay_type": "functional, organism-based"}}, "note": "pIC50: −log10 of the molar value.", "data": [{"smiles": "CC(C)C[C@H](NC(=O)[C@H](Cc1ccccc1)NC(=O)CNC(=O)CNC(=O)[C@@H](N)Cc1ccc(O)cc1)C(=O)O", "note": "[ENKEPHALIN]", "values": [{"measurement": "ED50", "setting": "[1]", "value": "> 100", "unit": "µg/kg"}]}, {"smiles": "CN1CC[C@]23c4c5ccc(O)c4O[C@H]2[C@@H](O)C=C[C@H]3[C@H]1C5", "note": "[MORPHINE]", "values": [{"measurement": "ED50", "setting": "[1]", "value": 5.6, "unit": "µg/kg"}]}, {"smiles": "NC(=O)[C@@H]1CSC[C@@H](NC(=O)[C@@H](N)Cc2ccc(O)cc2)C(=O)NCC(=O)N[C@@H](Cc2ccccc2)C(=O)N1", "values": [{"measurement": "pIC50", "setting": "[2]", "value": 9.21}, {"measurement": "Relative potency", "setting": "[3]", "value": 396}, {"measurement": "pIC50", "setting": "[4]", "value": 9.27}, {"measurement": "Relative potency", "setting": "[5]", "value": 21}, {"measurement": "ED50", "setting": "[1]", "value": 0.15, "unit": "µg/kg"}, {"measurement": "Ratio", "setting": "[6]", "value": 0.882}]}, {"smiles": "NC(=O)[C@@H]1CSSC[C@@H](NC(=O)[C@@H](N)Cc2ccc(O)cc2)C(=O)NCC(=O)N[C@@H](Cc2ccccc2)C(=O)N1", "note": "[listing 1 of 2 here]", "values": [{"measurement": "Relative potency", "setting": "[3]", "value": 132}, {"measurement": "Relative potency", "setting": "[5]", "value": 17}]}, {"smiles": "NC(=O)[C@H]1CSSC[C@H](NC(=O)[C@@H](N)Cc2ccc(O)cc2)C(=O)NCC(=O)N[C@H](Cc2ccccc2)C(=O)N1", "values": [{"measurement": "Ratio", "setting": "[6]", "value": 0.503}]}, {"smiles": "NC(=O)[C@@H]1CSSC[C@@H](NC(=O)[C@@H](N)Cc2ccc(O)cc2)C(=O)NCC(=O)N[C@@H](Cc2ccccc2)C(=O)N1", "note": "[listing 2 of 2 here]", "values": [{"measurement": "pIC50", "setting": "[7]", "value": 8.82}]}]}
